Experiments:
[1] = tested on: mutant codon 12 KRAS gene and wild-type KRAS gene in LS180; assay: Colony PCR with allele specific primers, LS180; format: cell-based, human; conditions: for MUT (number of mutant gene colonies) / WT (number of wild-type gene colonies): LS180, 50 nM, 48 hours, colony PCR, Table 3
Procedure: Using primers that specifically amplify the GAT mutant gene of KRAS codon 12 (KRAS-MUT-F and KRAS-MUT-R) and the wild-type genes thereof (KRAS-WT-F and KRAS-WT-R), PCR was carried out directly on the Escherichia coli cells in the above-described white colonies. Whether each colony was a mutant KRAS gene or a wild-type KRAS gene was determined, depending on by which primer set the band of interest was amplified.
KR12, which was considered to specifically alkylate the KRAS mutant codon 12 gene, was administered to a heterozygous colon cancer cell line LS180 having both a mutant codon 12 KRAS gene and a wild-type KRAS gene. Forty-eight hours later, RNA was extracted, and the KRAS gene was then quantitatively amplified. The amplified gene was cloned into a plasmid, using a TA cloning kit, and the obtained plasmid was then introduced into competent cells. Thereafter, by performing blue-white selection using an LB/amp/IPTG/X-Gal plate, white colonies having inserts were picked up, and then, the presence or absence of a colon 12 mutation in each colony was examined by direct sequencing or by a colony PCR method.

[2] = tested on: SW480 (KRAS-MUThomo); assay: Suppression of tumor growth in nude mice, SW480 transplanted; format: in vivo; conditions: nude mice with SW480 cells; for cancer tumor-inhibitory effect / tumor growth suppression: comparison KR12, KR13, seco CBI, FIG. 15
Procedure: The below-mentioned 3 types of PBS solutions containing each type of cells were subcutaneously transplanted into the femurs of nude mice (i.e., HT29 into 7 mice, LS180 into 7 mice, and SW480 into 6 mice), and thereafter, at a time point in which a tumor adhered to the living body of each mouse and the tumor volume became approximately 100 mm^3, a drug was prepared with a composition of 3.4 mmol KR12 (1.36 mM KR12 dissolved in 2.5 μL of DMSO and 197.5 μL of PBS), or of a DMSO/PBS control (2.5 μL of DMSO and 197.5 μL of PBS). The prepared drug was subjected to sonication for 10 minutes, and 200 μL of the drug was administered to each mouse via the caudal vein thereof. The body weight and the tumor size were measured once three days, and the size of the tumor was measured by the method of 0.52×L×W×D(1/6×π×L×W×D).
SW480 (KRAS-MUThomo): (transplanted in an amount of 5×10^6 cells/100 μl PBS into the subcutis of each mouse; a cell line having a […] KRAS gene codon 12 mutation G12V)
Using, as controls, PIP-indole-seco-CBI (KR13) not recognizing a codon 12 mutation and 8.4 mmol seco CBI (3.36 mM CBI dissolved in 2.5 μL of DMSO and 197.5 μL of PBS), instead of the DMSO/PBS control, an experiment was carried out by the same method as that of the above section 11.

[3] = tested on: LS180 cells; assay: Analysis of change in cell cycle (propidium iodide, flow cytometry); format: cell-based, human; conditions: LS180, 50 nM, FIG. 10A; for change in cell cycle: 72 hours; for change in cell cycle, Sub G1 stage (cell death): long-term treatment (14 days)
Procedure: In order to observe a cell cycle, treated cells and untreated cells were each washed with DNase-free PBS twice, and were then immobilized with 70% ethanol (frozen). The immobilized cells were treated with PBS containing 10 µg/mL RNaseA and 50 µg/mL propidium iodide, while they were left in a dark place at room temperature for 30 minutes. Using an FL-2H filter of FACS Calibur flowcytometer (Becton Dickinson, USA), fluorescence intensity was measured. The rate of cell cycle was determined by analyzing the obtained data using Cell Quest software (Becton Dickinson, USA). Regarding the treatment of cells, LS180 was treated with 50 nM KR12 or KR13 (dissolved in 0.125% DMSO) for 72 hours, and as a long-term treatment experiment, a culture experiment was carried out for 14 days. As a control, the cells were cultured in an MEM medium containing 10% FBS and 0.125% DMSO for 14 days.

[4] = tested on: LS180 cells; assay: Confirmation of cell death (apoptosis) by fragmentation of DNA; format: cell-based, human; conditions: LS180, 50 nM, FIG. 10B
Procedure: Regarding the treatment of cells, the LS180 cells were cultured at a cell density of 1.0×10^5 cells/30 mm dish in a culture media of MEM (gibco)+10% FBS (gibco)+100 units/ml Penicillin+100 μg/ml Streptmycin (gibco). Thereafter, the cultured cells were treated with 50 nM KR12 or KR13 (dissolved in 0.125% DMSO) for 72 hours, and also, as a long-term experiment, the cells were treated with KR 12 or KR13 for […]. Thereafter, the cells of different groups were treated with a control MEM medium containing 10% FBS and 0.125% DMSO for 11 days. At the same time, as a control group, the LS180 cells were treated with 10% FBS and 0.125% DMSO for 14 days. Thereafter, the cells of the different groups were treated with trypsin, and were then recovered. The recovered cells were stirred in 50 μl of a PBS solution, and 3 μl of 1.5% Triton X (in water) and 3 μl of an RNase (1 mg/ml in water) were then added to the reaction solution. The mixed solution was treated at 37° C. for 30 minutes. Subsequently, 3 μl of proteinase K (1 mg/ml) was added to the reaction solution, and the obtained mixture was then treated at 37° C. for 30 minutes. Subsequently, 12 μl of 6× loading buffer was further added to the reaction solution, and the obtained mixture was treated at 65° C. for 10 minutes. Immediately after the treatment, 20 μl of the reaction solution was electrophoresed on 2% agarose gel in TBE at 100 V, and the gel was then stained with ethidium.

[5] = tested on: γH2AX, p53, PARP in LS180 cells; assay: Western analysis of markers of DNA damage and cell death (apoptosis); format: cell-based, human; conditions: LS180, 50 nM, 14 days, FIG. 10C
Procedure: LS180 cells, which had been subjected to a long-term treatment experiment and had been treated with 50 nM KR12 or KR13 (dissolved in 0.125% DMSO) for 14 days, were dissolved in a 1×SDS-sample buffer. The obtained solution was treated at 100° C. for 5 minutes. The protein amount was estimated using Bradford reagent (Bio-Rad, CA), and was then electrophoresed by 10% SDS-PAGE. After that, the protein was transferred onto polyvinylidene difluoride membranes (Millipore, MA), and using 5% dry milk in Tris-buffered saline (TBS) plus 0.1% Tween 20 as a blocking agent, anti-γH2AX (2F3, BioLegend, CA), anti-p53 (DO-1, Santa Cruz Biotechnology, CA), anti-PARP (Cell Signaling Technologies, MA), or anti-actin antibody (20-33, Sigma, MO) was added to lanes, and the protein was further treated with HRP-conjugated anti-mouse IgG or anti-rabbit IgG (Cell Signaling Technologies, MA). Before the treatment with a secondary antibody, the primary antibody was washed, as appropriate. Thereafter, the protein was washed with TBS plus 0.1% Tween 20, and it was then identified by […] chemiluminescence (ECL) (Amersham Biosciences, NJ).

SMILES | MUT (number of mutant gene colonies) [1] | WT (number of wild-type gene colonies) [1] | cancer tumor-inhibitory effect / tumor growth suppression [2] | change in cell cycle [3] | change in cell cycle, Sub G1 stage (cell death) [3] | DNA fragmentation ([4]; 72-hour-treated groups) | DNA fragmentation ([4]; long-term treatment) | induction of DNA damage and cell death [5] | expression levels of mutant cancer genes ([1]; LS180, colony PCR) | tumor size ([2]; 3.4 mmol KR12 via the caudal vein, FIG. 14C) | size of the tumor ([2]; 2 months after the administration) | state of the tumor ([2]; 3 months after the administration) | DNA damage marker γH2AX [5] | cleavage of the PARP protein [5] | induction of p53 [5]
CC(=O)Nc1cn(C)c(C(=O)Nc2cn(C)c(C(=O)Nc3cc(C(=O)Nc4cn(C)c(C(=O)NCCC(=O)Nc5cc(C(=O)Nc6cn(C)c(C(=O)NCCCC(=O)Nc7cc(C(=O)Nc8cn(C)c(C(=O)Nc9cc(C(=O)NCCC(=O)Nc%10cc(C(=O)Nc%11ccc%12[nH]c(C(=O)N%13CC(CCl)c%14c%13cc(O)c%13ccccc%14%13)cc%12c%11)n(C)c%10)n(C)c9)n8)n(C)c7)n6)n(C)c5)n4)n(C)c3)n2)n1 (stereo not shown) [KR13] | 13 | 14 | impossible | the cells at the S phase and the G2M phase were slightly increased | an increase in the cell at the Sub G1 phase was not significant | DNA fragmentation was not observed | DNA fragmentation was not observed | significant induction of DNA damage and cell death was not observed |  |  |  |  |  |  | 
CC(=O)Nc1cn(C)c(C(=O)Nc2cc(C(=O)NCCC(=O)Nc3cn(C)c(C(=O)Nc4cn(C)c(C(=O)Nc5cc(C(=O)Nc6cn(C)c(C(=O)NCCCC(=O)Nc7cc(C(=O)Nc8cn(C)c(C(=O)NCCC(=O)Nc9cc(C(=O)Nc%10cc(C(=O)Nc%11ccc%12[nH]c(C(=O)N%13CC(CCl)c%14c%13cc(O)c%13ccccc%14%13)cc%12c%11)n(C)c%10)n(C)c9)n8)n(C)c7)n6)n(C)c5)n4)n3)n(C)c2)n1 (stereo not shown) [KR12] | 11 | 27 | significantly higher than in the case of administration of KR13 | the LS180 cells at the S stage were increased | the cells at the Sub G1 stage were significantly increased | DNA fragmentation was not observed | DNA fragmentation induced by cell death was observed |  | the expression levels of mutant cancer genes were decreased | significantly reduced | significantly reduced | an extremely small and hard induration | induced | the cleavage of the PARP protein was observed | induction of p53 was also observed

Reference: patent US11185593B2, “Alkylating agent for alkylating target with driver oncogene mutation” (Chiba Prefecture, priority 2013, dated 2021)
